Reference: patent US12036312B2, “Non-aqueous topical compositions comprising a halogenated salicylanilide” (priority 2016, dated 2024)

System: S. aureus
Test: MIC assay according to CLSI criteria, Example 2, S. aureus strains
Type: cell-based, Staphylococcus aureus
Details: Staphylococcus aureus
Method in brief: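 Broth microdilution per CLSI in cation-adjusted Mueller Hinton broth, ~5×10^5 exponential-phase cells per well, aerobic at 37° C for 18 hours; OD600 read at end.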

Measured: MIC

C=C[C@]1(C)C[C@@H](OC(=O)CS[C@@H]2C[C@H]3CC[C@@H](C2)N3C)[C@]2(C)[C@H](C)CC[C@]3(CCC(=O)[C@H]32)[C@@H](C)[C@@H]1O [Retapamulin, retapamulin]
0.125 µg/mL: MRSA, strain MRSA 21
0.06 µg/mL: MRSA, strain MRSA 01 | MRSA, strain MRSA 02 | MRSA, strain MRSA 04 | MRSA, strain MRSA 07 | MRSA, strain MRSA 09 | MRSA, strain MRSA 10 | MRSA, strain MRSA 11 | MRSA, strain MRSA 13 | MRSA, strain MRSA 15 | MRSA, strain MRSA 16 | MRSA, strain MRSA 18 | MRSA, strain MRSA 20 | MRSA, strain MRSA 22 | MRSA, strain MRSA 23 | MRSA, strain MRSA 24 | MRSA, strain MRSA 25 | MRSA, strain MRSA 26 | MRSA, strain MRSA 27 | MRSA, strain MRSA 29 | MRSA, strain MRSA 32 | MRSA, strain MRSA 33 | MRSA, strain MRSA 34 | MRSA, strain MRSA 36 | MRSA, strain MRSA 37 | MRSA, strain MRSA 38 | MRSA, strain MRSA 39 | MRSA, strain MRSA 42 | MRSA, strain MRSA 43 | MRSA, strain MRSA 90 | MRSA, strain MRSA 91 | MRSA, strain MRSA 92
0.03 µg/mL: ATCC29213, strain ATCC 29213 | MRSA, strain MRSA 03 | MRSA, strain MRSA 05 | MRSA, strain MRSA 06 | MRSA, strain MRSA 08 | MRSA, strain MRSA 12 | MRSA, strain MRSA 14 | MRSA, strain MRSA 17 | MRSA, strain MRSA 19 | MRSA, strain MRSA 28 | MRSA, strain MRSA 30 | MRSA, strain MRSA 35 | MRSA, strain MRSA 40 | MRSA, strain MRSA 51 | MRSA, strain MRSA 53 | MRSA, strain MRSA 54 | MRSA, strain MRSA 72 | MRSA, strain MRSA 73 | MRSA, strain MRSA 74 | MRSA, strain MRSA 75 | MRSA, strain MRSA 76 | MRSA, strain MRSA 77 | MRSA, strain MRSA 78 | MRSA, strain MRSA 81 | MRSA, strain MRSA 82 | MRSA, strain MRSA 83 | MRSA, strain MRSA 84 | MRSA, strain MRSA 85 | MRSA, strain MRSA 86 | MRSA, strain MRSA 88 | MRSA, strain MRSA 94 | MRSA, strain MRSA 95 | MRSA, strain MRSA 96 | MRSA, strain MRSA 97 | MRSA, strain MRSA 98 | MRSA, strain MRSA 99 | MRSA, strain MRSA 101 | MRSA, strain MRSA 102 | MRSA, strain MRSA 103
1 µg/mL: MRSA, strain MRSA 100
< 0.01 µg/mL: MRSA, strain MRSA 56 | MRSA, strain MRSA 69 | MRSA, strain MRSA 71 | MRSA, strain MRSA 79
0.02 µg/mL: MRSA, strain MRSA 27b | MRSA, strain MRSA 41 | MRSA, strain MRSA 44 | MRSA, strain MRSA 45 | MRSA, strain MRSA 46 | MRSA, strain MRSA 47 | MRSA, strain MRSA 48 | MRSA, strain MRSA 49 | MRSA, strain MRSA 50 | MRSA, strain MRSA 52 | MRSA, strain MRSA 55 | MRSA, strain MRSA 57 | MRSA, strain MRSA 58 | MRSA, strain MRSA 59 | MRSA, strain MRSA 60 | MRSA, strain MRSA 61 | MRSA, strain MRSA 62 | MRSA, strain MRSA 63 | MRSA, strain MRSA 64 | MRSA, strain MRSA 65 | MRSA, strain MRSA 66 | MRSA, strain MRSA 67 | MRSA, strain MRSA 68 | MRSA, strain MRSA 70 | MRSA, strain MRSA 80 | MRSA, strain MRSA 87 | MRSA, strain MRSA 89 | MRSA, strain MRSA 93
16 µg/mL: MRSA, strain MRSA 31
